Source: patent US8119112B2, “Ophthalmic compositions with an amphoteric surfactant and hyaluronic acid” (Bausch & Lomb Incorporated, priority 2008, dated 2012)

Assay: Precipitate formation of polyquaternium-1 with hyaluronic acid
Assay type: physicochemical
From the text: One of the more common quaternary ammonium compounds is α-[4-tris(2-hydroxyethyl)-ammonium chloride-2-butenyl]poly[1-dimethyl ammonium chloride-2-butenyl]-ω-tris(2-hydroxyethyl) ammonium chloride, also referred to in the art as polyquaternium-1. Quaternary ammonium compounds are generally referred to in the art as “polyquaternium” disinfectants, and are identified by a particular number following the designation such as polyquaternium-1, polyquaternium-10 or polyquaternium-42. Polyquaternium-1 is present in the ophthalmic compositions from 0.5 ppm to 3 ppm. […] The precipitate is believed to be the complexation product of hyaluronic acid and polyquaternium-1.

For “α-[4-tris(2-hydroxyethyl)-ammonium chloride-2-butenyl]poly[1-dimethyl ammonium chloride-2-butenyl]-ω-tris(2-hydroxyethyl) ammonium chloride [polyquaternium-1]”, which “concentration of polyquaternium-1 in the compositions that results in formation of a precipitate” value is on record?
The value was over 3 ppm.
